From patent US20050245399A1, “Pyrazole derivatives as herbicidal compositions containing them” (ISHIHARA SANGYO KAISHA, LTD., priority 2004, published 2005)

Tests used:
Type in all cases: in vivo
[1] = test system: soybean (Glycine max Merr.): GLXMA; test: Test Example 1 pre-emergence herbicidal activity, GLXMA; settings: visually observed 20th to 23rd day after application
Method in brief: (§1)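 Pots of upland soil were sown, and one day later WP or EC formulations at set active-ingredient rates were sprayed pre-emergence in 500 L/ha water. Growth control scored visually 20–23 days after application, 0 (as untreated) to 100 (complete kill).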

[2] = test system: wheat (Triticum aestivum L.), TRZAX; test: Test Example 2 post-emergence (foliage treatment) herbicidal activity, TRZAX; settings: 63 g a.i./ha
Method in brief: (§2)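 Each species was evaluated for growth suppression by eye, 0% matching untreated and 100% meaning death, some 20 to 23 days after a single post-emergence foliar treatment applied in 500 L/ha of water carrying 0.1% (v/v) agricultural spreader.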

[3] = test system: rice (Oryza sativa L.), ORYSA; test: Test Example 2 post-emergence (foliage treatment) herbicidal activity, ORYSA; settings: 63 g a.i./ha
Method in brief: (§3)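 Plants grown in upland soil pots were sprayed on foliage at set leaf stages (ECHCG 1.1-2.1, DIGSA 1.0-2.0, AMARE 0.1-1.5, ORYSA 1.0-2). Formulated compound was applied at predetermined active-ingredient amounts in 500 L/ha water with 0.1% (v/v) spreader. Growth control (0–100%) was visually scored 20–23 days later.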

[4] = test system: corn (Zea mays L.), ZEAMX; test: Test Example 2 post-emergence (foliage treatment) herbicidal activity, ZEAMX; settings: 63 g a.i./ha
Method in brief: as §2

[5] = test system: soybean (Glycine max Merr.), GLXMA; test: Test Example 2 post-emergence (foliage treatment) herbicidal activity, GLXMA; settings: 63 g a.i./ha
Method in brief: as §2

[6] = test system: crabgrass (Digitaria sanguinalis L.), DIGSA; test: Test Example 2 post-emergence (foliage treatment) herbicidal activity, DIGSA; settings: 63 g a.i./ha
Method in brief: as §3

[7] = test system: velvetleaf (Abutilon theophrasti), ABUTH; test: Test Example 2 post-emergence (foliage treatment) herbicidal activity, ABUTH; settings: 63 g a.i./ha
Method in brief: as §2

[8] = test system: rice (Oryza sativa L.: ORYSA); test: Test Example 3 water application herbicidal activity (paddy), transplanted rice ORYSA; settings: 63 g a.i./ha, water application 4th day after transplantation of 2 leaf stage rice, visually observed 21st day after application; 0 = untreated control, 100 = complete kill
Method in brief: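 Submerged application in flooded paddy soil (3–4 cm water); weeds treated at 0.5-leaf stage, transplanted rice 4 d after transplanting. Scored visually as % growth control: weeds at 14 d, rice at 21 d.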

[9] = test system: redroot pigweed (Amaranthus retroflexus L.), AMARE; test: Test Example 2 post-emergence (foliage treatment) herbicidal activity, AMARE; settings: 63 g a.i./ha
Method in brief: as §3

[10] = test system: barnyardgrass (Echinochloa crus-galli L.), ECHCG; test: Test Example 2 post-emergence (foliage treatment) herbicidal activity, ECHCG; settings: 63 g a.i./ha
Method in brief: as §3

[11] = test system: prickly sida (Sida spinosa L.): SEDSP; test: Test Example 1 pre-emergence herbicidal activity, SIDSP; settings: visually observed 20th to 23rd day after application
Method in brief: as §1

[12] = test system: barnyardgrass (Echinochloa crus-galli L.): ECHCG; test: Test Example 1 pre-emergence herbicidal activity, ECHCG; settings: visually observed 20th to 23rd day after application
Method in brief: as §1

[13] = test system: green foxtail (Setaria viridis L.), SETVI; test: Test Example 2 post-emergence (foliage treatment) herbicidal activity, SETVI; settings: 63 g a.i./ha
Method in brief: as §2

[14] = test system: japanese ribbon wapato (Sagittaria pygmaea: SA GPY); test: Test Example 3 water application herbicidal activity (paddy), SAGPY; settings: 63 g a.i./ha, water application under submerged condition, tubers planted, visually observed 14th day after application; 0 = untreated control, 100 = complete kill
Method in brief: (§4)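 Compound, as diluted wettable powder or emulsifiable concentrate, was pipetted into flood water at a set active-ingredient dose. Weeds were treated at 0.5-leaf stage after sowing or tuber planting; 2-leaf rice 4 days post-transplant. Control scored visually, 0 untreated to 100 complete kill, weeds day 14, rice day 21.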

[15] = test system: green foxtail (Setaria viridis L.): SETVI; test: Test Example 1 pre-emergence herbicidal activity, SETVI; settings: visually observed 20th to 23rd day after application
Method in brief: as §1

[16] = test system: corn (Zea mays L.): ZEAMX; test: Test Example 1 pre-emergence herbicidal activity, ZEAMX; settings: visually observed 20th to 23rd day after application
Method in brief: as §1

[17] = test system: redroot pigweed (Amaranthus retroflexus L.): AMARE; test: Test Example 1 pre-emergence herbicidal activity, AMARE; settings: visually observed 20th to 23rd day after application
Method in brief: as §1

[18] = test system: barnyardgrass (Echinochiloa oryzicola: ECHOR); test: Test Example 3 water application herbicidal activity (paddy), ECHOR; settings: 63 g a.i./ha, water application under submerged condition at 0.5 leaf stage, visually observed 14th day after application; 0 = untreated control, 100 = complete kill
Method in brief: as §4

[19] = test system: japanese bulrush (Scirpus juncoides: SCPJO); test: Test Example 3 water application herbicidal activity (paddy), SCPJO; settings: 63 g a.i./ha, water application under submerged condition at 0.5 leaf stage, visually observed 14th day after application; 0 = untreated control, 100 = complete kill
Method in brief: as §4

[20] = test system: wheat (Triticum aestivum L.): TRZAX; test: Test Example 1 pre-emergence herbicidal activity, TRZAX; settings: visually observed 20th to 23rd day after application
Method in brief: as §1

[21] = test system: rice (Oryza sativa L.): ORYSA; test: Test Example 1 pre-emergence herbicidal activity, ORYSA; settings: visually observed 20th to 23rd day after application
Method in brief: as §1

[22] = test system: crabgrass (Digitaria sanguinalis L.): DIGSA; test: Test Example 1 pre-emergence herbicidal activity, DIGSA; settings: visually observed 20th to 23rd day after application
Method in brief: as §1

[23] = test system: velvetleaf (Abutilon theophrasti): ABUTH; test: Test Example 1 pre-emergence herbicidal activity, ABUTH; settings: visually observed 20th to 23rd day after application
Method in brief: as §1

[24] = test system: prickly sida (Sida spinosa L.), SIDSP; test: Test Example 2 post-emergence (foliage treatment) herbicidal activity, SIDSP; settings: 63 g a.i./ha
Method in brief: as §2

| SMILES | Pre-emergence Herbicidal Activity GLXMA (growth controlling degree) ([1]; Rate 63 g a.i./ha) | growth controlling degree, TRZAX [2] | growth controlling degree, ORYSA [3] | growth controlling degree, ZEAMX [4] | growth controlling degree, GLXMA [5] | growth controlling degree, DIGSP [6] | growth controlling degree, ABUTH [7] | growth controlling degrees (%) ORYSA [8] | growth controlling degree, AMARE [9] | growth controlling degree, ECHCO [10] | Pre-emergence Herbicidal Activity SIDSP (growth controlling degree) ([11]; Rate 63 g a.i./ha) | Pre-emergence Herbicidal Activity ECHCG (growth controlling degree) ([12]; Rate 63 g a.i./ha) | growth controlling degree, SETVI [13] | growth controlling degrees (%) SAGPY [14] | Pre-emergence Herbicidal Activity SETVI (growth controlling degree) ([15]; Rate 63 g a.i./ha) | Pre-emergence Herbicidal Activity ZEAMX (growth controlling degree) ([16]; Rate 63 g a.i./ha) | Pre-emergence Herbicidal Activity AMARE (growth controlling degree) ([17]; Rate 63 g a.i./ha) | growth controlling degrees (%) ECHOR [18] | growth controlling degrees (%) SCPJO [19] | growth controlling degree, SIDSP [24] | also measured |
| --- | --- | --- | --- | --- | --- | --- | --- | --- | --- | --- | --- | --- | --- | --- | --- | --- | --- | --- | --- | --- | --- |
| COc1c(Cl)cc(F)c(-c2nn(C)c(OC(F)F)c2Cl)c1NC(=O)C(C)C [Compound 1-3] | 20% | 40% | 80% | 70% | 80% | 95% | 100% | 80% | 100% | 70% | 100% | 100% | 100% | 100% | 100% | 50% | 100% | 100% | 98% | 100% | Pre-emergence Herbicidal Activity TRZAX (growth controlling degree) ([20]; Rate 63 g a.i./ha): 40%; Pre-emergence Herbicidal Activity ORYSA (growth controlling degree) ([21]; Rate 63 g a.i./ha): 80%; Pre-emergence Herbicidal Activity DIGSP (growth controlling degree) ([22]; Rate 63 g a.i./ha): 100%; Pre-emergence Herbicidal Activity ABUTH (growth controlling degree) ([23]; Rate 63 g a.i./ha): 100% |
| COc1c(Cl)cc(F)c(-c2nn(C)c(OC(F)F)c2Cl)c1N(C=O)C(C)C [Compound 1-8] | 70% | 50% | 60% | 40% | 70% | 60% | 100% | 30% | 100% | 70% | 100% | 70% | 100% | 20% | 100% | 40% | 100% | 80% | 60% | 100% | Pre-emergence Herbicidal Activity TRZAX (growth controlling degree) ([20]; Rate 63 g a.i./ha): 50%; Pre-emergence Herbicidal Activity ORYSA (growth controlling degree) ([21]; Rate 63 g a.i./ha): 60%; Pre-emergence Herbicidal Activity DIGSP (growth controlling degree) ([22]; Rate 63 g a.i./ha): 60%; Pre-emergence Herbicidal Activity ABUTH (growth controlling degree) ([23]; Rate 63 g a.i./ha): 100% |
| COc1c(Cl)cc(F)c(-c2nn(C)c(OC(F)F)c2Cl)c1NC(=O)COc1ccccc1 [Compound 1-15] | 30% | 50% | 80% | 50% | 50% | 70% | 100% | 50% | 100% | 90% | 60% | 70% | 100% | 98% | 100% | 10% | 100% | 100% | 90% | 100% | Pre-emergence Herbicidal Activity TRZAX (growth controlling degree) ([20]; Rate 63 g a.i./ha): 30%; Pre-emergence Herbicidal Activity ORYSA (growth controlling degree) ([21]; Rate 63 g a.i./ha): 40%; Pre-emergence Herbicidal Activity DIGSP (growth controlling degree) ([22]; Rate 63 g a.i./ha): 100%; Pre-emergence Herbicidal Activity ABUTH (growth controlling degree) ([23]; Rate 63 g a.i./ha): 60% |
| COc1c(Cl)cc(F)c(-c2nn(C)c(OC(F)F)c2Cl)c1N(C(=O)CCc1ccccc1)C(=O)CCc1ccccc1 [Compound 1-18] |  | 10% | 60% | 60% | 60% | 70% | 100% | 30% | 100% | 70% |  |  | 80% | 50% |  |  |  | 100% | 40% | 100% | Pre-emergence Herbicidal Activity GLXMA (growth controlling degree) ([1]; Rate 125 g a.i./ha): 20%; Pre-emergence Herbicidal Activity SIDSP (growth controlling degree) ([11]; Rate 125 g a.i./ha): 60%; Pre-emergence Herbicidal Activity ECHCG (growth controlling degree) ([12]; Rate 125 g a.i./ha): 70%; Pre-emergence Herbicidal Activity SETVI (growth controlling degree) ([15]; Rate 125 g a.i./ha): 50%; Pre-emergence Herbicidal Activity ZEAMX (growth controlling degree) ([16]; Rate 125 g a.i./ha): 0%; Pre-emergence Herbicidal Activity AMARE (growth controlling degree) ([17]; Rate 125 g a.i./ha): 100%; Pre-emergence Herbicidal Activity TRZAX (growth controlling degree) ([20]; Rate 125 g a.i./ha): 30%; Pre-emergence Herbicidal Activity ORYSA (growth controlling degree) ([21]; Rate 125 g a.i./ha): 50%; Pre-emergence Herbicidal Activity DIGSP (growth controlling degree) ([22]; Rate 125 g a.i./ha): 98%; Pre-emergence Herbicidal Activity ABUTH (growth controlling degree) ([23]; Rate 125 g a.i./ha): 40% |
